One may read the inhibition as how much of the control response was suppressed. Lower therefore signals little suppression. As a reminder, the IC50 is the concentration at which inhibition is half-maximal.

For one assay, the target named is T1, GSPT1 protein (Homo sapiens, UniProt P15170+Q96SW2).
T1 construct: endogenous in cells; host or cells: HL-60 cells
Description: GSPT1 degradation assay (western blot) in HL-60 cells. Type of assay: cell-based. The settings on record: GSPT1 protein level, 2h incubation, western blot normalized to beta-Actin; for inhibition at 0.1 µM: 0.1 μM compound; for inhibition at 1 µM: 1 μM compound. The method, then:
HL-60 cells (4×10^^6 cells/well) were seeded in 6-well culture plate (Costar, 3516) and treated with a variety of concentrations of test compound. After 2h incubation, cells were collected and lysed. The protein concentration was determined by BCA protein assay kit from Thermo (23227). The GSPT1 protein level was determined by western blots, using GSPT1 polyclonal antibody. Proteins were loaded into each well of the pre-casting gels and subjected to electrophoretic separation by SDS-PAGE. The protein resolved by SDS-PAGE were transferred to PVDF, blocked by 5% skim milk and probed with anti-GSPT1 antibody (Proteintech, 10763-1-AP) or anti-β-actin antibody (CST, 3700S), using following standard western blotting procedure. Blots intensities were quantified using ImageJ software and the intensity of GSPT1 bands were normalized to beta-Actin bands, respectively. The GSPT1 degradation results were then calculated. Reported compound C84971 (see WO2021126974A1 and WO2021126973A1) was used as a reference.
For orientation: A western blot detects proteins with antibodies after separation by electrophoresis.

The next assay has as its system HL-60 cells. Description: Cell viability assay (CellTiter-Glo). Format: cell-based. The note with it: Homo sapiens, 72 h incubation, 6-point serial dilution. The protocol:
HL-60 cells were seeded at a density of 7000 cells per well in 96-well culture plates (Corning 3903) with IMDM and treated with test compounds following a 6-point serial dilution. RPMI 1640 (0.1% DMSO) was used as control for each well. After 72 h incubation, cell viability was determined using the CellTiter-Glo assay kit (Promega, G9242) according to the manufacturer's instructions. The dose-response curves were determined and IC50 values were calculated using the GraphPad Prism software following a nonlinear regression method.

Each structure is given as a SMILES string.

T1 sequence (P15170 whole entry): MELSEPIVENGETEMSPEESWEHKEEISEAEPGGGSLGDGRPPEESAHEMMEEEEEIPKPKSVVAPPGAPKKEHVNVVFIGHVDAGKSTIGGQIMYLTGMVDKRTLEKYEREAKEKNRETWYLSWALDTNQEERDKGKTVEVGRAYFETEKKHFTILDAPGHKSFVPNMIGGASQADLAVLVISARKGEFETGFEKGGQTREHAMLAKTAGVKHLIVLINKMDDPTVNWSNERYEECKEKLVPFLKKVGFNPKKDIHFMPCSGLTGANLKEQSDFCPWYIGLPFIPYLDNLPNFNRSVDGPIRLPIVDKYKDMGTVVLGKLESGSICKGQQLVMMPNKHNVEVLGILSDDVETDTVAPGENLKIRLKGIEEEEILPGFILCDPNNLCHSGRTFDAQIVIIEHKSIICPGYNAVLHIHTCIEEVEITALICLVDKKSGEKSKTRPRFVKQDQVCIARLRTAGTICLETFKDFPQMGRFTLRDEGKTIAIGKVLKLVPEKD
T1 sequence (Q96SW2 whole entry): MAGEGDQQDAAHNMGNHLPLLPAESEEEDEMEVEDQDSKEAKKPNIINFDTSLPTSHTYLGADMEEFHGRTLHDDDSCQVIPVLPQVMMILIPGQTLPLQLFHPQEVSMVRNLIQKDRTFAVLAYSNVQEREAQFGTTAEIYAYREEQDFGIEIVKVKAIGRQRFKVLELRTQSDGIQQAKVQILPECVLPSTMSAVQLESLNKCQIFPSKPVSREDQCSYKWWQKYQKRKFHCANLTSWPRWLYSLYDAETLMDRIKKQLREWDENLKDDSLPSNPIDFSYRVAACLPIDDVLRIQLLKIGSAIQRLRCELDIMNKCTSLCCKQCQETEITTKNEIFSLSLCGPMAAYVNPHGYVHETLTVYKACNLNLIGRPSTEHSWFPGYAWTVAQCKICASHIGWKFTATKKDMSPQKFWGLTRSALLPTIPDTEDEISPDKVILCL
T1 sequence (Q16531 whole entry partner): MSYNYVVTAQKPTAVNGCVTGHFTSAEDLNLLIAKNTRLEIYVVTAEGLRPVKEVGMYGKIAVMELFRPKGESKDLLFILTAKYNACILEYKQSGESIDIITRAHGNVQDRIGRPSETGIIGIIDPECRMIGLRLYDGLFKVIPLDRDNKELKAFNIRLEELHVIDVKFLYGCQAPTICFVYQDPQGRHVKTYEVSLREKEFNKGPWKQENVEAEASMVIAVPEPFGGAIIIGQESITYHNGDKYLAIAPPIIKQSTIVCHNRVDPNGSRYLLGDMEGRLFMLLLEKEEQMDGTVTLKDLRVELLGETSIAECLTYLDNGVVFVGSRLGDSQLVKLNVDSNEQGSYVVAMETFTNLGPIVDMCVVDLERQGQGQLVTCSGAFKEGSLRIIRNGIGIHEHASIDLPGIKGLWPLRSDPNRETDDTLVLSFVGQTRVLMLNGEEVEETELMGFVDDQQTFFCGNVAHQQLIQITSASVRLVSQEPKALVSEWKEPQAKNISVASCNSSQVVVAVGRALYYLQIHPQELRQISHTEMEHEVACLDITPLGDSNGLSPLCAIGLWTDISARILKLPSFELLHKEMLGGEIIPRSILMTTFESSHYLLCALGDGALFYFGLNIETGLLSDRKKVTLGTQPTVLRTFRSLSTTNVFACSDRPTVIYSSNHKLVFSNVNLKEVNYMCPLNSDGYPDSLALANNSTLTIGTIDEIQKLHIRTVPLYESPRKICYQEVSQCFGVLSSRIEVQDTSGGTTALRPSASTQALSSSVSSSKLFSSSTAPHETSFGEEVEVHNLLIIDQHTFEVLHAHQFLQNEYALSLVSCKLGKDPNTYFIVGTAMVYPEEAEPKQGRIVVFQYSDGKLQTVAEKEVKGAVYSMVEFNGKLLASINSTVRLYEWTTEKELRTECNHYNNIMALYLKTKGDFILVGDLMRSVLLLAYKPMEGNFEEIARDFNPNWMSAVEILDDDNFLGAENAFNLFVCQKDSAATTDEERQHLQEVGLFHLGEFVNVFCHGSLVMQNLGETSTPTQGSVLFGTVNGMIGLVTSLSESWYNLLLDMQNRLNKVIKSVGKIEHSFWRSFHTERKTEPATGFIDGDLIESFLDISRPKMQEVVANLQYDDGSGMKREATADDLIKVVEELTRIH

Take `O=C1CCC(N2C(=O)c3ccc(N4CCC(CN5CCCN(c6ccccc6)C5=O)CC4)cc3C2=O)C(=O)N1` (stereo not drawn) [Compound 1, 2-(2,6-dioxopiperidin-3-yl)-5-{4-[(2-oxo-3-phenyl-1,3-diazinan-1-yl)methyl]piperidin-1-yl}isoindole-1,3-dione]: on GSPT1 protein, at 0.1 µM the inhibition was 45% and the inhibition at 1 µM stood at 51%. Also, it took 1460 nM to reach half-maximal inhibition in the assay on HL-60 cells (IC50).
With `O=C1CCC(N2C(=O)c3ccc(N4CCC(CN5CCN(c6ccccc6)C5=O)CC4)cc3C2=O)C(=O)N1` (stereo not drawn) [Compound 2, 2-(2,6-dioxopiperidin-3-yl)-5-(4-((2-oxo-3-phenylimidazolidin-1-yl)methyl)piperidin-1-yl)isoindoline-1,3-dione], at GSPT1 protein, at 0.1 µM the inhibition was 0% and the inhibition at 1 µM is 0%.
Consider `O=C1CCC(N2C(=O)c3ccc(N4CCC(CN5CCCN(c6cccc(-c7cnccc7Cl)c6)C5=O)CC4)cc3C2=O)C(=O)N1` (stereo not drawn) [Compound 3, 5-(4-((3-(3-(4-chloropyridin-3-yl)phenyl)-2-oxotetrahydropyrimidin-1(2H)-yl)methyl)piperidin-1-yl)-2-(2,6-dioxopiperidin-3-yl)isoindoline-1,3-dione], for which, at GSPT1 protein, at 0.1 µM the inhibition was 30% and the inhibition at 1 µM worked out at 48%. This compound also returned a half-maximal inhibitory concentration (IC50) in the assay with HL-60 cells of 234 nM.
On GSPT1 protein, `O=C1CCC(N2C(=O)c3ccc(N4CCC(CN5CCCN(c6ccccn6)C5=O)CC4)cc3C2=O)C(=O)N1` (stereo not drawn) [Compound 4, 2-(2,6-dioxopiperidin-3-yl)-5-(4-{[2-oxo-3-(pyridin-2-yl)-1,3-diazinan-1-yl]methyl}piperidin-1-yl)isoindole-1,3-dione] displayed an inhibition at 0.1 µM of 0% and an inhibition at 1 µM of 0%.
Consider `O=C1CCC(N2C(=O)c3ccc(N4CCC(CN5CCCN(C6CCCCC6)C5=O)CC4)cc3C2=O)C(=O)N1` (stereo not drawn) [Compound 5, 5-(4-((3-cyclohexyl-2-oxotetrahydropyrimidin-1(2H)-yl)methyl)piperidin-1-yl)-2-(2,6-dioxopiperidin-3-yl) isoindoline-1,3-dione], for which, on GSPT1 protein, testing at 0.1 µM gave an inhibition of 17% and the inhibition at 1 µM amounted to 7%.
On GSPT1 protein, `CC(C)(C)N1CCCN(CC2CCN(c3ccc4c(c3)C(=O)N(C3CCC(=O)NC3=O)C4=O)CC2)C1=O` (stereo not drawn) [Compound 7, 5-(4-((3-(tert-butyl)-2-oxotetrahydropyrimidin-1(2H)-yl)methyl)piperidin-1-yl)-2-(2,6-dioxopiperidin-3-yl)isoindoline-1,3-dione] had an inhibition at 0.1 µM of 0% and an inhibition at 1 µM of 10%.
On to `O=C1CCC(c2ccc(N3CCC(CN4CCCN(c5ccccc5)C4=O)CC3)cc2)C(=O)N1` (stereo not drawn) [Compound 13, 3-(4-{4-[(2-oxo-3-phenyl-1,3-diazinan-1-yl)methyl]piperidin-1-yl}phenyl) piperidine-2,6-dione], for which, at GSPT1 protein, the inhibition at 0.1 µM came to 0% and 1 µM produced 0% inhibition.
On to `O=C1CCC(N2C(=O)c3ccc(N4CCC(CN5CCCN(c6cccc(Cl)c6)C5=O)CC4)cc3C2=O)C(=O)N1` (stereo not drawn) [Compound 14, 5-(4-((3-(3-chlorophenyl)-2-oxotetrahydropyrimidin-1(2H)-yl)methyl)piperidin-1-yl)-2-(2,6-dioxopiperidin-3-yl)isoindoline-1,3-dione], for which, at GSPT1 protein, the inhibition at 0.1 µM was determined as 0% and testing at 1 µM gave an inhibition of 0%.
As to `O=C1CCC(N2C(=O)c3ccc(N4CCC(CN5CCCN(Cc6ccc(F)cc6)C5=O)CC4)cc3C2=O)C(=O)N1` (stereo not drawn) [Compound 16, 2-(2,6-dioxopiperidin-3-yl)-5-(4-((3-(4-fluorobenzyl)-2-oxotetrahydropyrimidin-1(2H)-yl)methyl)piperidin-1-yl)isoindoline-1,3-dione], at GSPT1 protein, testing at 0.1 µM gave an inhibition of 26% and the inhibition at 1 µM worked out at 32%.
At GSPT1 protein, `O=C1CCC(N2C(=O)c3ccc(N4CCC(CN5CCN(Cc6ccc(F)cc6)C5=O)CC4)cc3C2=O)C(=O)N1` (stereo not drawn) [Compound 17, 2-(2,6-dioxopiperidin-3-yl)-5-(4-((3-(4-fluorobenzyl)-2-oxoimidazolidin-1-yl)methyl)piperidin-1-yl)isoindoline-1,3-dione] had an inhibition at 0.1 µM of 36% and an inhibition at 1 µM of 22%.
In the same order, the values of `Cc1csc(N2CCCN(CC3CCN(c4ccc5c(c4)C(=O)N(C4CCC(=O)NC4=O)C5=O)CC3)C2=O)n1` (stereo not drawn) [Compound 18, 2-(2,6-dioxopiperidin-3-yl)-5-(4-{[3-(4-methyl-1,3-thiazol-2-yl)-2-oxo-1,3-diazinan-1-yl]methyl}piperidin-1-yl)isoindole-1,3-dione] are 32% and 36%.
On GSPT1 protein, `O=C1CCC(c2ccc(N3CCC(CCN4CCCN(c5ccccc5)C4=O)CC3)cc2)C(=O)N1` (stereo not drawn) [Compound 20, 3-(4-(4-(2-(2-oxo-3-phenyltetrahydropyrimidin-1(2H)-yl)ethyl)piperidin-1-yl)phenyl)piperidine-2,6-dione] yielded an inhibition at 0.1 µM of 0% and an inhibition at 1 µM of 0%.
In the case of `O=C1CCC(N2C(=O)c3ccc(N4CC(CCN5CCCN(c6cccc(-c7ccn8ccnc8c7)c6)C5=O)C4)cc3C2=O)C(=O)N1` (stereo not drawn) [Compound 21, 2-(2,6-dioxopiperidin-3-yl)-5-(3-(2-(3-(3-(imidazo[1,2-a]pyridin-7-yl)phenyl)-2-oxotetrahydropyrimidin-1(2H)-yl)ethyl)azetidin-1-yl)isoindoline-1,3-dione], on GSPT1 protein, the inhibition at 0.1 µM amounted to 35% and the inhibition at 1 µM came out at 40%.
At GSPT1 protein, `Cc1nc2ncc(-c3cccc(N4CCCN(CCC5CN(c6ccc7c(c6)C(=O)N(C6CCC(=O)NC6=O)C7=O)C5)C4=O)c3)cc2o1` (stereo not drawn) [Compound 24, 2-(2,6-dioxopiperidin-3-yl)-5-(3-(2-(3-(3-(2-methyloxazolo[4,5-b]pyridin-6-yl)phenyl)-2-oxotetrahydropyrimidin-1(2H)-yl)ethyl)azetidin-1-yl)isoindoline-1,3-dione] came in with an inhibition at 0.1 µM of 26% and an inhibition at 1 µM of 29%.
At GSPT1 protein, `CCNc1ccc(-c2cccc(N3CCCN(CC4CCN(c5ccc6c(c5)C(=O)N(C5CCC(=O)NC5=O)C6=O)CC4)C3=O)c2)c(Cl)c1` (stereo not drawn) [Compound 30, 5-{4-[(3-{3-[2-chloro-4-(ethylamino)phenyl]phenyl}-2-oxo-1,3-diazinan-1-yl)methyl]piperidin-1-yl}-2-(2,6-dioxopiperidin-3-yl)isoindole-1,3-dione] displayed an inhibition at 0.1 µM of 37% and an inhibition at 1 µM of 45%.
Turning to `CNC(=O)c1ccc(-c2cccc(N3CCCN(CC4CCN(c5ccc6c(c5)C(=O)N(C5CCC(=O)NC5=O)C6=O)CC4)C3=O)c2)c(Cl)c1` (stereo not drawn) [Compound 31, 3-chloro-4-{3-[3-({1-[2-(2,6-dioxopiperidin-3-yl)-1,3-dioxoisoindol-5-yl]piperidin-4-yl}methyl)-2-oxo-1,3-diazinan-1-yl]phenyl}-N-methylbenzamide], at GSPT1 protein, the inhibition at 0.1 µM came out at 45% and the inhibition at 1 µM turned out to be 55%.
At GSPT1 protein, `CN(C)C(=O)c1ccc(-c2cccc(N3CCCN(CC4CCN(c5ccc6c(c5)C(=O)N(C5CCC(=O)NC5=O)C6=O)CC4)C3=O)c2)c(Cl)c1` (stereo not drawn) [Compound 32, 3-chloro-4-{3-[3-({1-[2-(2,6-dioxopiperidin-3-yl)-1,3-dioxoisoindol-5-yl]piperidin-4-yl}methyl)-2-oxo-1,3-diazinan-1-yl]phenyl}-N,N-dimethylbenzamide] registered an inhibition at 0.1 µM of under 10% and an inhibition at 1 µM of under 10%.
Consider `CS(=O)(=O)c1ccc(-c2cccc(N3CCCN(CC4CCN(c5ccc6c(c5)C(=O)N(C5CCC(=O)NC5=O)C6=O)CC4)C3=O)c2)c(Cl)c1` (stereo not drawn) [Compound 33, 5-[4-({3-[3-(2-chloro-4-methanesulfonylphenyl)phenyl]-2-oxo-1,3-diazinan-1-yl}methyl)piperidin-1-yl]-2-(2,6-dioxopiperidin-3-yl)isoindole-1,3-dione], for which, on GSPT1 protein, the inhibition at 0.1 µM was under 10% and the inhibition at 1 µM was determined as 15%.
Regarding `CCn1ncc2ccc(-c3cccc(N4CCCN(CC5CCN(c6ccc7c(c6)C(=O)N(C6CCC(=O)NC6=O)C7=O)CC5)C4=O)c3)c(Cl)c21` (stereo not drawn) [Compound 34, 5-(4-((3-(3-(7-chloro-1-ethyl-1H-indazol-6-yl)phenyl)-2-oxotetrahydropyrimidin-1(2H)-yl)methyl)piperidin-1-yl)-2-(2,6-dioxopiperidin-3-yl)isoindoline-1,3-dione], on GSPT1 protein, testing at 0.1 µM gave an inhibition of 58% and the inhibition at 1 µM came to 53%.
As for `CCc1c[nH]c2ccc(-c3cc(N4CCCN(CC5CCN(c6ccc7c(c6)C(=O)N(C6CCC(=O)NC6=O)C7=O)CC5)C4=O)ccn3)c(Cl)c12` (stereo not drawn) [Compound 35, 5-(4-((3-(2-(4-chloro-3-ethyl-1H-indol-5-yl)pyridin-4-yl)-2-oxotetrahydropyrimidin-1(2H)-yl)methyl)piperidin-1-yl)-2-(2,6-dioxopiperidin-3-yl)isoindoline-1,3-dione], at GSPT1 protein, the inhibition at 0.1 µM turned out to be 0% and the inhibition at 1 µM was 0%.

These data come from patent publication US20260108521A1, “GSPT1 DEGRADERS, COMPOSITIONS COMPRISING THE DEGRADER, AND METHODS OF USING THE SAME” (BIOFRONT LTD, priority 2022, published 2026).
